Laboratory results: the NIST ThermoML archive (doi:10.1016/j.fluid.2014.09.014)

Assays:
[1] = 298.15 K; 101.33 kPa; Liquid; mechanical oscillator
[2] = refractive index (Na D-line) (dimensionless); details: 298.15 K; 101.33 kPa; Liquid; Standard Abbe refractometry
[3] = Boiling temperature at pressure P; details: Liquid, Ebulliometric method (Recirculating still)
[4] = xn = mol fraction of the nth substance listed; details: 101 kPa, Liquid, mechanical oscillator
[5] = refractive index (other wavelength) (dimensionless); xn = mol fraction of the nth substance listed; details: 101 kPa, Liquid, Standard Abbe refractometry

CC(C)OC(C)C [diisopropyl ether]
Details	mass density [kg/m3]	refractive index
[1]	718.3	–
[2]	–	1.3653

CO [methanol]
Details	mass density [kg/m3]	refractive index
[1]	786.62	–
[2]	–	1.32666

[3]
Details	Boiling temperature at pressure P [°C]
26.55 kPa	33.76
29.52 kPa	36.0
32.46 kPa	37.94
35.65 kPa	39.93
37.8 kPa	41.19
40.63 kPa	42.76
43.23 kPa	44.12
44.63 kPa	44.83
48.35 kPa	46.62
51.4 kPa	48.00
53.97 kPa	49.11
56.89 kPa	50.32
59.55 kPa	51.38
62.25 kPa	52.41
64.9 kPa	53.39
67.5 kPa	54.32
70.07 kPa	55.21
72.95 kPa	56.17
75.66 kPa	57.1
78.35 kPa	57.90
81.05 kPa	58.72
83.76 kPa	59.52
86.46 kPa	60.30
96.35 kPa	63.00

CO [methanol] + CC(C)OC(C)C
[4], x1 = 1
Details	mass density [kg/m3]
293.15 K	791.62
298.15 K	786.62
303.15 K	781.54
308.15 K	776.5
313.15 K	771.53
318.15 K	766.6

refractive index, [5], x1 = 1
Details	Wavelength=40.47 nm	Wavelength=435.8 nm	Wavelength=486.1 nm	Wavelength=546.1 nm	Wavelength=587.6 nm	Wavelength=589.3 nm	Wavelength=632.8 nm	Wavelength=644 nm	Wavelength=706.5 nm
293.15 K	1.33767	1.3353	1.3324	1.32991	1.32869	1.32864	1.32754	1.3273	1.3261
298.15 K	1.33564	1.3333	1.3304	1.328	1.32671	1.32666	1.32558	1.32535	1.32415
303.15 K	1.33357	1.33126	1.32839	1.32597	1.32471	1.32467	1.3236	1.32336	1.32219
308.15 K	1.33153	1.32926	1.32637	1.32397	1.32274	1.32269	1.32163	1.32138	1.32021
313.15 K	1.32947	1.32722	1.32434	1.32196	1.32073	1.32068	1.31965	1.31942	1.31825
318.15 K	1.32742	1.32518	1.32234	1.31993	1.31874	1.3187	1.31768	1.31744	1.31631

CC(C)O [propan-2-ol]
Details	mass density [kg/m3]	refractive index
[1]	782.45	–
[2]	–	1.37522

[3]
Details	Boiling temperature at pressure P [°C]
14.02 kPa	39.48
16.09 kPa	42.07
18.94 kPa	45.20
21.65 kPa	47.82
24.56 kPa	50.31
26.99 kPa	52.21
29.69 kPa	54.2
32.53 kPa	56.04
36.08 kPa	58.20
38.28 kPa	59.5
40.49 kPa	60.7
43.63 kPa	62.27
45.88 kPa	63.37
48.77 kPa	64.71
51.47 kPa	65.91
54.24 kPa	67.08
56.82 kPa	68.12
59.59 kPa	69.20
62.14 kPa	70.2
65.69 kPa	71.43
67.6 kPa	72.09
70.27 kPa	72.98
73.16 kPa	73.93
75.65 kPa	74.72
78.35 kPa	75.6
81.05 kPa	76.36
83.8 kPa	77.16
86.4 kPa	77.90
96.28 kPa	80.54

CC(C)O [propan-2-ol] + CC(C)OC(C)C
[4], x2 = 0
Details	mass density [kg/m3]
293.15 K	786.91
298.15 K	782.45
303.15 K	777.84
308.15 K	773.13
313.15 K	768.47
318.15 K	763.79

refractive index, [5], x2 = 0
Details	Wavelength=404.7 nm	Wavelength=435.8 nm	Wavelength=486.1 nm	Wavelength=546.1 nm	Wavelength=587.6 nm	Wavelength=589.3 nm	Wavelength=632.8 nm	Wavelength=644 nm	Wavelength=706.5 nm
293.5 K	1.3883	1.38525	1.38179	1.37892	1.37742	1.37736	1.37605	1.37574	1.37424
298.15 K	1.3861	1.38307	1.37963	1.37678	1.37527	1.37522	1.37392	1.37361	1.37214
303.15 K	1.38379	1.38078	1.37738	1.37453	1.37304	1.37299	1.3717	1.3714	1.36993
308.15 K	1.38152	1.37851	1.37512	1.3723	1.3708	1.37075	1.36946	1.36917	1.36772
313.15 K	1.37921	1.37624	1.37288	1.37005	1.36857	1.36852	1.36726	1.36696	1.36551
318.15 K	1.37691	1.37397	1.37061	1.36782	1.36635	1.36629	1.36502	1.36473	1.36329
